Measurements taken from patent US11773086B2, “Fungal modulators” (TRUSTEES OF BOSTON UNIVERSITY, priority 2020, dated 2023).

What was measured:
[1] = system: CDR1 (B9J08_000164) and CDR4-1 (B9J08_000479); experiment: RT-qPCR of efflux gene expression; assay type: cell-based, Candida auris; details: azoffluxin alone, 3 hours
Source text: FIGS. 3A-3B, and 4A-4B illustrate azoffluxin increases fluconazole (FLC) bioavailability by inhibiting Cdr1-mediated efflux in C. auris, as described above. FIG. 3A depicts the relative abundance of specific sterols determined in C. auris after an 18-hour treatment with the respective compounds (⋅ indicates combo treatment concentrations) using LC-MS. Values are plotted relative to the internal standard of cholesterol and error bars indicate standard deviation between technical triplicates. Significance was determined by an unpaired student t-test of each condition to untreated, (*) indicates a p-value<0.05 and (**) indicates a p-value<0.01. FIG. 3B depicts the intracellular concentrations of FLC and azoffluxin measured after treatment for 1 hour (conditions as in FIG. 3A) Error bars indicate standard deviation between technical triplicates. Significance was determined by an unpaired student t-test, (**) indicates a p-value<0.01. FIG. 4A depicts the quantified relative expression of a panel of putative efflux pumps in C. auris Ci6684. Expression of CDR1 (B9J08_000164), MDR1 (B9J08_003981), CDR4-1 (B9J08_000479), CDR4-2 (B9J08_002451), SNQ2-1 (B9J08_001125), and SNQ2-2 (B9J08_004452) was measured by RT-qPCR. […] FIG. 4B depicts expression of CDR1 (B9J08_000164) and CDR4-1 (B9J08_000479) measured by quantitative real-time PCR (RT-qPCR). […]

Tolerability = assay type: in vivo; details: 10 mg/Kg BID for 4 days
293T cells = 293T cells grown without C. auris (luciferase signal); assay type: cell-based, human; details: 293T cells without C. auris, any treatment condition
Experimental: FIG. 10A depicts mammalian embryonic kidney (293T) cells expressing luciferase used to quantify mammalian cell growth in co-culture. Mammalian cells were seeded in 384-well plates in DMEM medium at 5×10^5 cells/mL overnight. After 24 hours the indicated concentration of compound (⋅ indicates combo treatment concentrations) was added along with 2.5×10^3 cells/mL of C. auris. Co-cultures were incubated for 48 hours at 37° C. and then the luminescence was measured as an output of mammalian cell growth. Error represents standard deviation between technical quadruplicates, (***) indicates a p-value<0.001 between 293T cells alone and co-culture growth for each condition. […] FIG. 10C depicts checkerboard assays performed as described in FIG. 2B with C. auris Clade IV isolate B11801. Relative growth was measured after 24 hours using OD600 and normalized to no-drug control wells (see color bar). The FICI calculated for each checkerboard is shown in the top right of each plot, with values<0.5 indicating synergy. FIG. 10D depicts kidney fungal burden (CFU) in mice from each treatment group (n=3) that had been infected with C. auris B11801. […] The significance of differences between combination treatment and treatment with each compound alone was determined by two-tailed unpaired student t-test, (***) p-value<0.001. […]

In the case of `C=C(C)C[C@@H](O)COc1cc2c(cc1C1(c3cc4c(cc3OC[C@H](O)CC(=C)C)OCO4)C(=O)Nc3cc(F)ccc31)OCO2` [CMLD012336], the “CDR1 and CDR4-1 transcript levels” value [1] is reported as “concentration-dependent increase”, the tolerability (Tolerability) is reported as “well tolerated” and the mammalian cytotoxicity (293T cells) is reported as “no detectable mammalian cytotoxicity”.
